This passage reports IC50 results from US11780845B2 (Relay Therapeutics, Inc., priority 2019, dated 2023).

Bounds are passed on as bounds.

One assay addresses FGFR2 (Homo sapiens (Human), UniProt P21802). The assay can be described thus: Biochemical FGFR2 Caliper assay.
The next assay concerns SNU-16. The assay can be described thus: Cell SNU-16 assay. In kind it is cell-based.
Where [1] appears, read: Homo sapiens, SNU-16, SNU-16 cells.

Sequence of FGFR2 (P21802 22-821): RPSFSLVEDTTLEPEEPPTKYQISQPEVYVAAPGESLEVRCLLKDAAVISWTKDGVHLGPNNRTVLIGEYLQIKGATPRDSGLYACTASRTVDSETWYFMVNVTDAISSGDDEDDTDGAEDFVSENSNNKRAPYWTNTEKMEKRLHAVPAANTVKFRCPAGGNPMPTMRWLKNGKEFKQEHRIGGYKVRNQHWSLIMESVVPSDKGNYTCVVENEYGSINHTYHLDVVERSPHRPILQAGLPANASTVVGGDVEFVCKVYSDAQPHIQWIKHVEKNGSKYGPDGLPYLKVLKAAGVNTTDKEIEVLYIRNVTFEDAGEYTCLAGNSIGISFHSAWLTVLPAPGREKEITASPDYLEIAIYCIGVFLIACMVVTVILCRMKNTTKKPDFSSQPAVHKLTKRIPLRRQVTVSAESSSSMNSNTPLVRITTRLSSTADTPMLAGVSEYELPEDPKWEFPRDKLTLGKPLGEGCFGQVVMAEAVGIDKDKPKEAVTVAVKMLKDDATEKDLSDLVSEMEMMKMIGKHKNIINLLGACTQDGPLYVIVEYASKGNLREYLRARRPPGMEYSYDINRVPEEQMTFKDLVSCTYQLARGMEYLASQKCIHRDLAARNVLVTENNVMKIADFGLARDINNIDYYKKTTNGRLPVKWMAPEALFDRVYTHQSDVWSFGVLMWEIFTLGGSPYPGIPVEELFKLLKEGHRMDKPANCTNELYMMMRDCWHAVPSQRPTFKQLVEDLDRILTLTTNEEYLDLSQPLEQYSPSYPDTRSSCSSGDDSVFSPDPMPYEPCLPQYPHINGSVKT

As to `C=C(C)C(=O)Nc1ccc(-c2c(C3=CC[C@H](C(=O)N4CCC[C@@]45CCOC5)CC3)c3c(N)ncnc3n2C)cc1` (single isomer, unassigned) [Example 955], the IC50 (in general, the concentration that inhibits the measured activity by half) on FGFR2 fell in the range of 1000 to 100000 nM; in the assay on SNU-16 (SNU-16 cells), 250 to 1000 nM.

Consider `C#Cc1ncc2cc(-c3c(-c4ccc(Oc5nccc(C)n5)c(F)c4)c4c(N)ncnc4n3C)ccc2n1` [Example 1385], for which the results for the IC50 against FGFR2 and in the assay on SNU-16 (setting [1]) were < 100 nM and ≤ 100 nM, respectively.

For `C=C1CCCN(c2ccc(-c3c(-c4ccc(Oc5nccc(C)n5)cc4)c4c(N)ncnc4n3C)cc2)C1=O` [Example 1087], the figures for the IC50 against FGFR2 and in the assay with SNU-16 (setting [1]) were < 100 nM and ≤ 100 nM, respectively.

In the case of `C=CC(=O)N[C@H]1C[C@@H]1c1c(-c2ccc(C(=O)N3CCCC3)cc2)c2c(N)ncnc2n1C` (single isomer, unassigned) [Example 972], the IC50 against FGFR2 and in the assay on SNU-16 (setting [1]) was 1000 to 100000 nM in each case.

In the case of `CC(=O)C(=O)Nc1ccc(-c2c(-c3ccc(C(=O)N4CCc5ccccc54)cc3)c3c(N)ncnc3n2C)cc1` [Example 980], the IC50 against FGFR2 is < 100 nM; in the assay on SNU-16 (setting [1]), ≤ 100 nM.

For the molecule `C=C(C)C(=O)Nc1cc(-c2c(-c3ccc(Oc4nccc(C)n4)c(F)c3)c3c(N)ncnc3n2C)n(C)n1` [Example 1161], the IC50 against FGFR2 was < 100 nM; in the assay on SNU-16 (setting [1]), ≤ 100 nM.

For `C=C(C)C(=O)Nc1ccc(-c2c(C3=CC[C@@H](C(=O)N4CCCC45COC5)CC3)c3c(N)ncnc3n2C)c(C)c1` (single isomer, unassigned) [Example 1033], the IC50 against FGFR2 was < 100 nM; in the assay with SNU-16 (setting [1]), ≤ 100 nM.

Take `C=CC(=O)N1CCC(n2cc(-c3c(-c4ccc(C(=O)NCC(C)(C)OC)cc4)c4c(N)ncnc4n3C)cn2)CC1` [Example 851]: the IC50 against FGFR2 and with SNU-16 (setting [1]) was 1000 to 100000 nM in each case.

As to `C#Cc1cc(C)c(-c2c(-c3ccc(Oc4ncccn4)c(F)c3)c3c(N)ncnc3n2C)cn1` [Example 1234], the IC50 was < 100 nM against FGFR2 and ≤ 100 nM in the assay with SNU-16 (setting [1]).

As to `C=C(C)C(=O)Nc1ccc(-c2c(-c3ccc(C(=O)N[C@H]4C[C@@H](F)C4)c(OC)c3)c3c(N)ncnc3n2C)cc1` [Example 964], the figures for the half-inhibitory concentration (IC50) against FGFR2 and in the assay on SNU-16 (setting [1]) were < 100 nM and ≤ 100 nM, respectively.

With `C#Cc1cc(Cl)c(-c2c(-c3ccc(Oc4nccc(C)n4)c(F)c3)c3c(N)ncnc3n2C)cn1` [Example 1250], the results for the half-maximal inhibitory concentration (IC50) against FGFR2 and with SNU-16 (setting [1]) were < 100 nM and ≤ 100 nM, respectively.

As to `C=C(C)c1ccc(-c2c(-c3ccc4nn[nH]c4c3)c3c(N)ncnc3n2C)cn1` [Example 1407], the IC50 on FGFR2 and in the assay with SNU-16 (setting [1]) was 250 to 1000 nM throughout.

Consider `C=C(C)C(=O)Nc1ccc(-c2c(C3=CC[C@@H](C(=O)N4CCCCCC4)CC3)c3c(N)ncnc3n2C)cc1` (single isomer, unassigned) [Example 979], for which the IC50 at FGFR2 and with SNU-16 (setting [1]) was 250 to 1000 nM in each case.

Turning to `C#Cc1cc(C)c(-c2c(C3=CC[C@H](C(=O)N4CCC[C@H]4COC)CC3)c3c(N)ncnc3n2C)cn1` (single isomer, unassigned) [Example 1205], the IC50 against FGFR2 and in the assay on SNU-16 (setting [1]) was 250 to 1000 nM throughout.

For the molecule `CC1=CCCN(c2ccc(-c3c(-c4ccc(Oc5nccc(C)n5)cc4)c4c(N)ncnc4n3C)cc2)C1=O` [Example 1090], the values for the IC50 against FGFR2 and in the assay with SNU-16 (setting [1]) were < 100 nM and ≤ 100 nM, respectively.

Consider `C=CC(=O)N1CC(c2c(-c3ccc(C(=O)c4nccc(C)n4)cc3F)c3c(N)ncnc3n2C)C[C@@H]1C` (some centres unmarked) [Example 885], for which the IC50 against FGFR2 and with SNU-16 (SNU-16 cells) was 1000 to 100000 nM throughout.

For the molecule `C=CC(=O)Nc1ccc(-c2cn3ncnc(N)c3c2-c2ccc(Oc3cccc(C)n3)cc2)cc1` [Example 829], the IC50 was < 100 nM on FGFR2 and ≤ 100 nM in the assay with SNU-16 (setting [1]).

Consider `C=C(C)C(=O)Nc1ccc(-c2c(-c3ccc4c(c3)CO[C@@H]4c3cccc(C)n3)c3c(N)ncnc3n2C)cc1` (single isomer, unassigned) [Example 894], for which the IC50 against FGFR2 and with SNU-16 (setting [1]) was 250 to 1000 nM in each case.

As for `CNC(=O)/C(C#N)=C/c1ccc(-c2c(-c3ccc(Oc4nccc(C)n4)c(F)c3)c3c(N)ncnc3n2C)c(C)c1` [Example 1309], the concentration for half-maximal inhibition (IC50) on FGFR2 is < 100 nM; in the assay on SNU-16 (setting [1]), 250 to 1000 nM.

As for `C=C(C)C(=O)Nc1ccc(-c2c(-c3cnc(-c4ccc(F)cc4)s3)c3c(N)ncnc3n2C)cc1` [Example 1424], the IC50 against FGFR2 fell in the range of 100 to 250 nM; in the assay on SNU-16 (setting [1]) it was 250 to 1000 nM.

On to `Cc1ccnc(Oc2ccc(-c3c(-c4ccc(NC(=O)CCl)cc4)n(C)c4ncnc(N)c34)cc2)n1` [Example 897], for which the IC50 was 100 to 250 nM at FGFR2 and ≤ 100 nM in the assay with SNU-16 (setting [1]).

Take `C#Cc1cnc2cc(-c3c(-c4ccc(Oc5nccc(C)n5)c(F)c4)c4c(N)ncnc4n3C)ccc2n1` [Example 1363]: the results for the IC50 against FGFR2 and in the assay on SNU-16 (setting [1]) were < 100 nM and ≤ 100 nM, respectively.

In the case of `C#Cc1cc(C)c(-c2c(-c3ncc(Oc4nccc(C)n4)cc3F)c3c(N)ncnc3n2C)cn1` [Example 1492], the IC50 at FGFR2 was < 100 nM; with SNU-16 (setting [1]) it was ≤ 100 nM.

For `C=C(C)C(=O)Nc1ccc(-c2c(C3=CC[C@H](C(=O)N4CC[C@H]5C[C@H]54)CC3)c3c(N)ncnc3n2C)cc1` (single isomer, unassigned) [Example 1043], the IC50 against FGFR2 was < 100 nM; in the assay on SNU-16 (setting [1]), ≤ 100 nM.

On to `COC/C=C/c1cc(C)c(-c2c(-c3ccc(Oc4nccc(C)n4)c(F)c3)c3c(N)ncnc3n2C)cn1` [Example 1378], for which the IC50 on FGFR2 and in the assay with SNU-16 (setting [1]) was 1000 to 100000 nM in each case.

On to `C#Cc1nc2cc(-c3c(C4=CC[C@@H](C(=O)N5CCC[C@H]5COC)CC4)c4c(N)ncnc4n3C)ccc2[nH]1` [Example 1320], for which the IC50 on FGFR2 is < 100 nM; with SNU-16 (setting [1]), 250 to 1000 nM.

For the molecule `C#Cc1cc2c(cn1)-c1c(-c3ccc(Oc4nccc(C)n4)c(F)c3)c3c(N)ncnc3n1CCC2` [Example 1477], the IC50 at FGFR2 was < 100 nM; in the assay with SNU-16 (setting [1]), ≤ 100 nM.

For the molecule `C#Cc1cc(C)c(-c2c(-c3ccc(Oc4nccc(C)n4)cc3)c3c(N)ncnc3n2C)cn1` [Example 1073], the IC50 against FGFR2 and in the assay with SNU-16 (setting [1]) was 1000 to 100000 nM each time.

Regarding `C=CC(=O)Nc1ccc(-c2c(-c3ccc(Oc4cccc(C)n4)c(F)c3)c3c(N)ncnc3n2C)cc1` [Example 1053], the IC50 against FGFR2 fell in the range of 100 to 250 nM; in the assay on SNU-16 (setting [1]), 250 to 1000 nM.

Turning to `C=C(C)C(=O)Nc1ccc(-c2cn3ncnc(N)c3c2-c2ccc(C(=O)NC3CCOC3)cc2)cc1` (centres unmarked) [Example 841], the IC50 against FGFR2 and in the assay with SNU-16 (setting [1]) was 250 to 1000 nM in each case.

Consider `C#Cc1cc(C)c(-c2c(C3=CC[C@H](C(=O)N4CCC[C@H]4C)CC3)c3c(N)ncnc3n2C)cn1` [Example 1249], for which the IC50 on FGFR2 fell in the range of 250 to 1000 nM; with SNU-16 (setting [1]), 100 to 250 nM.

`C=C(C)C(=O)Nc1ccc(-c2c(C3=CC[C@]4(CC3)Cc3ccccc3C4=O)c3c(N)ncnc3n2C)cc1` (single isomer, unassigned) [Example 988]: the IC50 at FGFR2 is 250 to 1000 nM; in the assay with SNU-16 (setting [1]), ≤ 100 nM.

Take `C#Cc1ncc(-c2c(-c3ccc(Oc4nccc(C)n4)cc3)c3c(N)ncnc3n2C)cn1` [Example 1117]: the concentration for half-maximal inhibition (IC50) on FGFR2 is 100 to 250 nM; in the assay with SNU-16 (SNU-16 cells), ≤ 100 nM.

As to `C=C(C)C(=O)Nc1ccc(-c2[nH]c3ncnc(N)c3c2-c2ccc(S(=O)(=O)C3CCCC3)cc2)cc1` [Example 818], the half-inhibitory concentration (IC50) against FGFR2 and in the assay with SNU-16 (setting [1]) was 250 to 1000 nM each time.

For the molecule `C=C(C)C(=O)Nc1ccc(-c2cn3ncnc(N)c3c2-c2ccc(C(=O)NCC(C)(C)OC)cc2)cc1` [Example 852], the IC50 is 250 to 1000 nM against FGFR2 and 1000 to 100000 nM in the assay on SNU-16 (setting [1]).

Turning to `C=C(C)C(=O)Nc1ccc(-c2[nH]c3ncnc(N)c3c2-c2ccc(Oc3ncc(F)cn3)c(F)c2)cc1` [Example 815], the IC50 at FGFR2 was 250 to 1000 nM; in the assay with SNU-16 (setting [1]), 1000 to 100000 nM.

As to `C#Cc1cnc(-c2c(-c3ccc(Oc4nccc(C)n4)c(F)c3)c3c(N)ncnc3n2C)c(CN(C)C)c1` [Example 1314], the values for the IC50 at FGFR2 and in the assay on SNU-16 (setting [1]) were 100 to 250 nM and ≤ 100 nM, respectively.

With `C=C(C)C(=O)Nc1ccc(-c2nn3ccnc(N)c3c2C2=CC[C@@H](C(=O)N3CCCC3)CC2)cc1` (single isomer, unassigned) [Example 867], the 50% inhibitory concentration (IC50) at FGFR2 is < 100 nM; in the assay with SNU-16 (setting [1]) it was ≤ 100 nM.

For the molecule `C=C(C)C(=O)Nc1ccc(-c2c(C3=CC[C@H](S(=O)(=O)N4CCCC4)CC3)c3c(N)ncnc3n2C)cc1` [Example 995], the IC50 was in the range of 1000 to 100000 nM against FGFR2 and 250 to 1000 nM in the assay on SNU-16 (setting [1]).

On to `C#Cc1ncc(-c2c(C3=CC[C@@H](C(=O)N4CCCC4)CC3)c3c(C)ncnc3n2C)c(C)n1` (single isomer, unassigned) [Example 1166], for which the figures for the half-maximal inhibitory concentration (IC50) at FGFR2 and in the assay on SNU-16 (setting [1]) were < 100 nM and ≤ 100 nM, respectively.

For the molecule `C=C(C)C(=O)Nc1ccc(-c2c(-c3ccc(-n4cc(C)cn4)nc3)c3c(N)ncnc3n2C(C)C)cc1` [Example 1151], the IC50 against FGFR2 was 100 to 250 nM; with SNU-16 (setting [1]) it was 250 to 1000 nM.

For `C#Cc1cc(-c2c(-c3ccccc3)c3c(N)ncnc3n2C)ccn1` [Example 1193], the IC50 against FGFR2 and with SNU-16 (setting [1]) was 250 to 1000 nM in each case.

With `C=C(C)C(=O)Nc1ccc(-c2c(-c3ccc4nc(C)sc4c3)c3c(N)ncnc3n2C)cc1` [Example 1279], the IC50 on FGFR2 and with SNU-16 (setting [1]) was 250 to 1000 nM each time.

With `C#Cc1cc(C)c(-c2c(C3=CC[C@@]4(CC3)Cc3ccc(C)nc3O4)c3c(C)ncnc3n2C)cn1` [Example 1392], the IC50 against FGFR2 and with SNU-16 (setting [1]) was 1000 to 100000 nM each time.

Take `C#Cc1ncc(-c2c(C3=CC[C@H](C(=O)N4CCCC4)CC3)c3c(N)ncnc3n2C)c(C)c1F` (single isomer, unassigned) [Example 1330]: the 50% inhibitory concentration (IC50) on FGFR2 is < 100 nM; in the assay with SNU-16 (setting [1]), ≤ 100 nM.

On to `C=C(C)C(=O)Nc1ccc(-c2c(-c3ccc(C(=O)NCC(F)(F)F)cc3)c3c(N)ncnn3c2CO)cc1` [Example 832], for which the IC50 on FGFR2 and in the assay on SNU-16 (setting [1]) was 1000 to 100000 nM throughout.

As to `C=C(C)C(=O)Nc1ccc(-c2cn3ncnc(N)c3c2-c2ccc(C(=O)N3CC4CC3C4)cc2)cc1` [Example 840], the IC50 against FGFR2 is < 100 nM; with SNU-16 (setting [1]), ≤ 100 nM.

In the case of `C#Cc1cc(C)c(-c2c(-c3ccc(Oc4cccc(C)n4)c(F)c3)c3c(N)ncnc3n2C)cn1` [Example 1203], the IC50 is < 100 nM against FGFR2 and ≤ 100 nM in the assay on SNU-16 (setting [1]).

Regarding `C#Cc1cc(N(C)C)c(-c2c(-c3ccc(Oc4nccc(C)n4)c(F)c3)c3c(N)ncnc3n2C)cn1` [Example 1458], the IC50 is < 100 nM on FGFR2 and ≤ 100 nM in the assay on SNU-16 (setting [1]).
